Data reported in patent US8455665B2, “3-phenoxymethylpyrrolidine compounds” (Theravance, Inc., priority 2009, dated 2013).
Marks after values point to notes of the source that are not given here.

Columns and labels:
SERT = SERT (Homo sapiens, UniProt P31645); assay: fluorescence-based serotonin uptake assay (Tsuruda et al. 2010); assay type: cell-based; settings: serotonin reuptake inhibition, fluorescence-based assay (data indicated by an asterisk); for IC50: read-out: SERT pIC50 (converted)
NET = NET (Homo sapiens, UniProt P23975); assay: fluorescence-based norepinephrine uptake assay (Tsuruda et al. 2010); assay type: cell-based; settings: norepinephrine reuptake inhibition, fluorescence-based assay (data indicated by an asterisk); for IC50: read-out: NET pIC50 (converted)
Sequence of NET (P23975 whole entry): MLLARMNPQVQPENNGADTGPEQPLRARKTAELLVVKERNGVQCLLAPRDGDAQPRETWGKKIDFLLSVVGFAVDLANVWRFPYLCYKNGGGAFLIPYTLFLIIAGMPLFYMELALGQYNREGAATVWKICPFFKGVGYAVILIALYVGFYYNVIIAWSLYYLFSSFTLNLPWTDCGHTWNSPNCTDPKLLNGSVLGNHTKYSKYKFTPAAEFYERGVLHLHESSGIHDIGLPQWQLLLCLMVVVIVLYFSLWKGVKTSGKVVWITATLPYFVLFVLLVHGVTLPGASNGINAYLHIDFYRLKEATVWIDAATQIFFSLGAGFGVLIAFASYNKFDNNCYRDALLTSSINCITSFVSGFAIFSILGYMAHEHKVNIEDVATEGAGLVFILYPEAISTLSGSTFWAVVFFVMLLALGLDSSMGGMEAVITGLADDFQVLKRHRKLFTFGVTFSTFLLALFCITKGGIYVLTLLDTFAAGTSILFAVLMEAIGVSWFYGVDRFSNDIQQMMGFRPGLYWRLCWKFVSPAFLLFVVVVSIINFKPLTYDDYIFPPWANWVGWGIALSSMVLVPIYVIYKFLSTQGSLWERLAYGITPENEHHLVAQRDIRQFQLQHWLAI

Sequence of SERT (P31645 whole entry, species assumed): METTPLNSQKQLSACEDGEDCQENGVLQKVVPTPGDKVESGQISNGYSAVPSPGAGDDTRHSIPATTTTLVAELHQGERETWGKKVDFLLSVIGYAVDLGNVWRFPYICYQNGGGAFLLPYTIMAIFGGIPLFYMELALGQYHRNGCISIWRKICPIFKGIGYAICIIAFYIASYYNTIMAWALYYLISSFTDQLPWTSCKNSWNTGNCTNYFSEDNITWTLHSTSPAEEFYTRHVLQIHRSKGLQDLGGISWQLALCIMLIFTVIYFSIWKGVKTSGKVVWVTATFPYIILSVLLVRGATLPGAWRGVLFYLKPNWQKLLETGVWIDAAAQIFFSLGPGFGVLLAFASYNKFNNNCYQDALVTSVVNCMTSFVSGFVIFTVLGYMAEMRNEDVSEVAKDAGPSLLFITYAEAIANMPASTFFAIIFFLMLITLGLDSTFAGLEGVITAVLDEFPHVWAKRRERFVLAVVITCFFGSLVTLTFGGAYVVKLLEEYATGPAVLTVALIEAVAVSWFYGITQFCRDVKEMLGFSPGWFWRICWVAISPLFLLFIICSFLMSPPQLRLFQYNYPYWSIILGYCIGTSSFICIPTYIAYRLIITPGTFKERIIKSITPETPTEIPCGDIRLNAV

Row | IC50 (SERT) | IC50 (NET) | SMILES | SERT pIC50 (SERT) | NET pIC50 (NET)
1 | ≤ 0.01 µM | ≤ 0.01 µM | CC(C)OC[C@@H](Oc1cccc(Cl)c1C(F)(F)F)[C@H]1CCNC1 [Example 9-19, (S)-3-[(S)-1-(3-Chloro-2-trifluoromethylphenoxy)-2-isopropoxyethyl]pyrrolidine] | – | –
2 | ≤ 0.01 µM | ≤ 0.01 µM | CC(C)SC[C@H](Oc1ccc(Cl)c(Cl)c1)[C@H]1CCNC1 [Example 19-7, (S)-3-[(R)-1-(3,4-Dichlorophenoxy)-2-isopropylsulfanylethyl]-pyrrolidine] | – | –
3 | – | – | CCSC[C@H](Oc1ccc(Cl)cc1)[C@H]1CCNC1.O=C(O)C(F)(F)F [Example 17-10] | ≧8.0* | ≧8.0*
4 | – | – | CSC[C@@H](Oc1c(C)cc(Cl)cc1Cl)[C@H]1CCNC1.O=C(O)C(F)(F)F [Example 15-13] | ≧8.0* | ≧7.0*
5 | ≤ 0.01 µM | ≤ 0.01 µM | CC(C)SC[C@@H](Oc1cccc(Cl)c1C(F)(F)F)[C@H]1CCNC1 [Example 19-6, (S)-3-[(S)-1-(3-Chloro-2-trifluoromethylphenoxy)-2-isopropylsulfanylethyl]pyrrolidine] | – | –
6 | ≤ 0.01 µM | ≤ 0.01 µM | CC(C)SC[C@H](Oc1cccc(Cl)c1Cl)[C@H]1CCNC1 [Example 19-1, (S)-3-[(R)-1-(2,3-Dichlorophenoxy)-2-isopropylsulfanylethyl]pyrrolidine] | – | –
7 | ≤ 0.01 µM | ≤ 0.1 µM | CC(C)OC[C@@H](Oc1ccc(Cl)cc1Cl)[C@H]1CCNC1 [Example 9-23, (S)-3-[(S)-1-(2,4-Dichlorophenoxy)-2-isopropoxyethyl]pyrrolidine] | – | –
8 | – | – | CSC[C@@H](Oc1cccc(Cl)c1C)[C@H]1CCNC1.O=C(O)C(F)(F)F [Example 15-6] | ≧8.0* | ≧8.0*
9 | – | – | CCSC[C@@H](Oc1cccc(Cl)c1C(F)(F)F)[C@H]1CCNC1.O=C(O)C(F)(F)F [Example 17-14] | ≧8.0* | ≧7.0*
10 | ≤ 0.01 µM | ≤ 0.1 µM | CCOC[C@@H](Oc1ccc(Cl)cc1Cl)[C@H]1CCNC1 [Example 7-17, (S)-3-[(S)-1-(2,4-Dichlorophenoxy)-2-ethoxyethyl]pyrrolidine] | – | –
11 | – | – | CCSC[C@@H](Oc1cccc(Cl)c1Cl)[C@H]1CCNC1.O=C(O)C(F)(F)F [Example 17-2] | ≧8.0* | ≧8.0*
12 | ≤ 0.01 µM | ≤ 0.01 µM | Cc1cc(Cl)ccc1O[C@H](CO)[C@@H]1CCNC1 (stereo in doubt) [Example 1, (R)-2-(4-Chloro-2-methylphenoxy)-2-(S)-pyrrolidin-3-yl-ethanol] | – | –
13 | ≤ 0.1 µM | ≤ 0.1 µM | CCOC[C@@H](Oc1cccc(C(F)(F)F)c1)[C@H]1CCNC1 [Example 7-3, (S)-3-[(S)-2-Ethoxy-1-(3-trifluoromethylphenoxy)ethyl]pyrrolidine] | – | –
14 | ≤ 0.01 µM | ≤ 0.01 µM | CC(C)OC[C@H](Oc1cccc(Cl)c1Cl)[C@H]1CCNC1 [Example 9-7, (S)-3-[(R)-1-(2,3-Dichlorophenoxy)-2-isopropoxyethyl]pyrrolidine] | – | –
15 | ≤ 0.1 µM | ≤ 0.01 µM | Clc1cccc(Cl)c1OC(COCc1ccccc1)C1CCNC1 [Example 10-4, ((S)-3-[(R)-2-Benzyloxy-1-(2,6-dichlorophenoxy)ethyl]pyrrolidine] | – | –
16 | ≤ 0.1 µM | ≤ 0.01 µM | CCOC[C@H](Oc1c(F)ccc(F)c1Cl)[C@H]1CCNC1 [Example 7-30, (S)-3-[(R)-1-(2-Chloro-3,6-difluorophenoxy)-2-ethoxyethyl]pyrrolidine] | – | –
17 | ≤ 0.1 µM | ≤ 0.01 µM | CCOC[C@H](Oc1cccc(F)c1F)[C@H]1CCNC1 [Example 7-11, (S)-3-[(R)-1-(2,3-Difluorophenoxy)-2-ethoxyethyl]pyrrolidine] | – | –
18 | ≤ 0.1 µM | ≤ 0.01 µM | CCOC[C@H](Oc1cc(F)cc(Cl)c1)[C@H]1CCNC1 [Example 7-28, (S)-3-[(R)-1-(3-Chloro-5-fluorophenoxy)-2-ethoxyethyl]pyrrolidine] | – | –
